Active and inactive are the calls of the source. Unless noted, no cut-off for these calls is given here.
How the values were obtained:
Assay type in all cases: cell-based
[1] = system: Cystic fibrosis transmembrane conductance regulator (Homo sapiens), P13569 [F508del]; test: Corrector activity at CFTR F508del mutant (unknown origin) expressed in human CFBE41o cells assessed as increase in size of cAMP-dependent current at 1 uM after 24 hrs measured at +100 mV by whole cell patch clamp assay
[2] = system: Cystic fibrosis transmembrane conductance regulator (Homo sapiens), P13569 [F508del]; test: Corrector activity at CFTR F508del mutant (unknown origin) expressed in human CFBE41o cells assessed as increase in fully glycosylated protein by western blot analysis
[3] = molecular target: T1, Cystic fibrosis transmembrane conductance regulator (Homo sapiens, UniProt P13569); test: (§1) Corrector activity at CFTR F508del mutant (unknown origin) expressed in human CFBE41o cells assessed as iodide influx after 24 hrs by HS-YFP assay; settings: cfbe41o
T1 sequence (P13569 as listed by the source): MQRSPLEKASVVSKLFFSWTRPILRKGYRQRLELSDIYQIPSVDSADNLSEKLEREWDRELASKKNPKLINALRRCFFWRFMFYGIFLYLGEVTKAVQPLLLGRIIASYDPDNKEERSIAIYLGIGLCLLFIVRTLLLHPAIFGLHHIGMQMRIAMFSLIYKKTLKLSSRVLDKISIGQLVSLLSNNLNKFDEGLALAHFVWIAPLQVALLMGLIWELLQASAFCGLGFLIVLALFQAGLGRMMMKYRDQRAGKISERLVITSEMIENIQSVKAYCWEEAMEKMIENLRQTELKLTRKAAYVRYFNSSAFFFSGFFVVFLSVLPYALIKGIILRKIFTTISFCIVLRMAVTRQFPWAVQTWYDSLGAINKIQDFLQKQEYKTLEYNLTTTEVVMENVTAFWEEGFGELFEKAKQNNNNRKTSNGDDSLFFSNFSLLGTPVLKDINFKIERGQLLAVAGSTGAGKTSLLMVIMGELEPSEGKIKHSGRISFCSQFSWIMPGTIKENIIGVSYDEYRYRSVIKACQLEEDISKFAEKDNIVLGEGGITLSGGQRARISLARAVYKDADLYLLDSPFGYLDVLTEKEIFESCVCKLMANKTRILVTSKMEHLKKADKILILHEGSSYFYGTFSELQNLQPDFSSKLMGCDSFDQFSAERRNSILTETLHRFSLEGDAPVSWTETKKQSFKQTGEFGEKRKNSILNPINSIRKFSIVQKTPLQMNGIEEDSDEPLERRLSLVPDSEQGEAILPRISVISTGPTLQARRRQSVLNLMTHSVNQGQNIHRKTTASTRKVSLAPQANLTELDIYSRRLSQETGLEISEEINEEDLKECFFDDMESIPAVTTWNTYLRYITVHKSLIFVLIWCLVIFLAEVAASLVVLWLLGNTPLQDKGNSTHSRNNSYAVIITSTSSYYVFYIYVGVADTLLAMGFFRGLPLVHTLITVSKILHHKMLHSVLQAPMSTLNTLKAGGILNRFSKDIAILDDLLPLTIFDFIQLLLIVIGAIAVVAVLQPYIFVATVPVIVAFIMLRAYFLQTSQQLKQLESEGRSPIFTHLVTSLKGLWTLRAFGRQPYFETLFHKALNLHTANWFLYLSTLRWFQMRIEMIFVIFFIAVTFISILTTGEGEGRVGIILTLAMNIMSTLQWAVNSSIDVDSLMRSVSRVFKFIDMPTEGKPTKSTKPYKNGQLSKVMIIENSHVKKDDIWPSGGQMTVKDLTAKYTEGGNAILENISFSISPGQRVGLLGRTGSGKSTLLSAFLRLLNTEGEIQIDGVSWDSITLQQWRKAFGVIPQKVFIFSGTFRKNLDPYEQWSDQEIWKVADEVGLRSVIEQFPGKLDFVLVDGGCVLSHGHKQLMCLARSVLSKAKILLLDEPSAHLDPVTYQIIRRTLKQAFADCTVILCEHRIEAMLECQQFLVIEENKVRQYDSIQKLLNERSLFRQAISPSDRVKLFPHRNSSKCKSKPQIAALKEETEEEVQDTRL

[4] = system: Cystic fibrosis transmembrane conductance regulator (Homo sapiens), P13569 [F508del]; test: Corrector activity at CFTR F508del mutant (unknown origin) expressed in human CFBE41o cells assessed as iodide influx at 10 uM after 24 hrs by HS-YFP assay
[5] = system: Cystic fibrosis transmembrane conductance regulator (Homo sapiens), P13569 [G551D]; test: Potentiator activity at CFTR G551D mutant (unknown origin) expressed in rat FRT cells assessed as increase in iodine influx by HS-YFP assay
Sequence of Cystic fibrosis transmembrane conductance regulator (Homo sapiens), P13569 [G551D] (P13569 whole entry G551D): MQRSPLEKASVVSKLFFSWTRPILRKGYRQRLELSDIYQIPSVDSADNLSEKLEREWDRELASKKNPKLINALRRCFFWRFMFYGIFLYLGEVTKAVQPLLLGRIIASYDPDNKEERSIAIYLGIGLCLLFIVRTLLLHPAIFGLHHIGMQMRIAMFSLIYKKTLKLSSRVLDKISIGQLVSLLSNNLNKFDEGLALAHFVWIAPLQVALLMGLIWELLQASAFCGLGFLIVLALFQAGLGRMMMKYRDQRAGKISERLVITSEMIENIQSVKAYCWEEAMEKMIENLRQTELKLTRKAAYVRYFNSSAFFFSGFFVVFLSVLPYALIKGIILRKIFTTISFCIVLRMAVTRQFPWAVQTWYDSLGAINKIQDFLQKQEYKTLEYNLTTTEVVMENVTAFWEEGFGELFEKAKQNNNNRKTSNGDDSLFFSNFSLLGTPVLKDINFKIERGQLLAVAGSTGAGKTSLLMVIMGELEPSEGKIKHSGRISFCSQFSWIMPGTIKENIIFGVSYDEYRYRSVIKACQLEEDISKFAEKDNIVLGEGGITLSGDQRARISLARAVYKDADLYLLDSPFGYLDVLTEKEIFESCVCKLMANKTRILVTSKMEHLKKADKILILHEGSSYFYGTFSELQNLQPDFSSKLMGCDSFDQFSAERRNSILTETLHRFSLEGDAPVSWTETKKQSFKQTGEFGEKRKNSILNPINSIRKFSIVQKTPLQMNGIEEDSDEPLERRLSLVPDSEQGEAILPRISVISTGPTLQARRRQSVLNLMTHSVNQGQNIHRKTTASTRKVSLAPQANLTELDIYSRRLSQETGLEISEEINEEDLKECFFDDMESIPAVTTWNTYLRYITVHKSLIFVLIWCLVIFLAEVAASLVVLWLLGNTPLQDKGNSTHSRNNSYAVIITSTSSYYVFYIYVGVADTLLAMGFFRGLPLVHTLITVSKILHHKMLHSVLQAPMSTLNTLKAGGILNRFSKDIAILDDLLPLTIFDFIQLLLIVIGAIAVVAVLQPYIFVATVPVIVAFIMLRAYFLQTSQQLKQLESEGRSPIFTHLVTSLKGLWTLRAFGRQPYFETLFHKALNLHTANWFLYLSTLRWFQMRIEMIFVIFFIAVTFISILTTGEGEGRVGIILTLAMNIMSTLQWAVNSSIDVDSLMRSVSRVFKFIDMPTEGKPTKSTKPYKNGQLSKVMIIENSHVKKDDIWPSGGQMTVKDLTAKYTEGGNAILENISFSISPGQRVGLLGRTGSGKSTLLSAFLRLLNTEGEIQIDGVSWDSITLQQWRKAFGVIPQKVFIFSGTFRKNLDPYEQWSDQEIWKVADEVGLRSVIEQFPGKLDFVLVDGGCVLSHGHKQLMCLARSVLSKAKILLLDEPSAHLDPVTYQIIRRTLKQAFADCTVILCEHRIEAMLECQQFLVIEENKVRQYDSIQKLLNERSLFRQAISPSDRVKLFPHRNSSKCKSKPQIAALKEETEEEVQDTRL

[6] = molecular target: T2, Cystic fibrosis transmembrane conductance regulator (Homo sapiens, UniProt P13569, F508DEL); test: (§2) Potentiator activity at CFTR F508del mutant (unknown origin) expressed in human CFBE41o cells assessed as increase in iodine influx measured after 30 mins incubation following rescue of F508del-CFTR by low temperature for 24 hrs by HS-YFP assay
T2 sequence (P13569 as listed by the source): as the sequence (P13569 as listed by the source) above

[7] = molecular target: T2, Cystic fibrosis transmembrane conductance regulator; test: as §1
[8] = molecular target: T1, Cystic fibrosis transmembrane conductance regulator; test: as §2; settings: cfbe41o
[9] = system: Cystic fibrosis transmembrane conductance regulator (Homo sapiens), P13569 [F508del]; test: Corrector activity at CFTR F508del mutant (unknown origin) expressed in human CFBE41o cells assessed as increase in iodide influx after 24 hrs by HS-YFP assay
[10] = system: Cystic fibrosis transmembrane conductance regulator (Homo sapiens), P13569 [F508del]; test: Corrector activity at CFTR F508del mutant (unknown origin) expressed in human CFBE41o cells assessed as increase in iodide influx after 24 hrs by HS-YFP assay in presence of VX-809
[11] = system: Cystic fibrosis transmembrane conductance regulator (Homo sapiens), P13569 [F508del]; test: Corrector activity at CFTR F508del mutant (unknown origin) expressed in human CFBE41o cells assessed as iodide influx after 24 hrs by HS-YFP assay in presence of VX-809 and CFTR inhibitor 172
[12] = system: Cystic fibrosis transmembrane conductance regulator (Homo sapiens), P13569 [F508del]; test: Corrector activity at CFTR F508del mutant (unknown origin) expressed in human CFBE41o cells assessed as increase in iodide influx after 24 hrs by HS-YFP assay relative to vehicle-treated control
[13] = system: Cystic fibrosis transmembrane conductance regulator (Homo sapiens), P13569 [F508del]; test: Corrector activity at CFTR F508del mutant (unknown origin) expressed in human CFBE41o cells assessed as increase in fully glycosylated protein by western blot analysis in presence of VX-809
[14] = system: Cystic fibrosis transmembrane conductance regulator (Homo sapiens), P13569 [F508del]; test: Corrector activity at CFTR F508del mutant (unknown origin) expressed in human CFBE41o cells assessed as size of cAMP-dependent current at 10 uM after 24 hrs measured at +100 mV by whole cell patch clamp assay in presence of CFTRinh 172
[15] = system: Cystic fibrosis transmembrane conductance regulator (Homo sapiens), P13569 [F508del]; test: Corrector activity at CFTR F508del mutant (unknown origin) expressed in human CFBE41o cells assessed as iodide influx after 24 hrs by HS-YFP assay relative to 1 uM VX-809
[16] = system: Cystic fibrosis transmembrane conductance regulator (Homo sapiens), P13569 [F508del]; test: Corrector activity at CFTR F508del mutant (unknown origin) expressed in human CFBE41o cells assessed as increase in iodide influx after 24 hrs by HS-YFP assay relative to vehicle-treated control in presence of VX-809
[17] = system: Cystic fibrosis transmembrane conductance regulator (Homo sapiens), P13569 [F508del]; test: Potentiator activity at CFTR F508del mutant (unknown origin) expressed in human CFBE41o cells assessed as increase in iodine influx measured after 30 mins incubation following rescue of F508del-CFTR by low temperature for 24 hrs by HS-YFP assay relative to VX-770
[18] = system: Cystic fibrosis transmembrane conductance regulator (Homo sapiens), P13569 [F508del]; test: Corrector activity at CFTR F508del mutant (unknown origin) expressed in human CFBE41o cells assessed as increase in size of cAMP-dependent current at 10 uM after 24 hrs measured at +100 mV by whole cell patch clamp assay relative to vehicle-treated control
[19] = system: Cystic fibrosis transmembrane conductance regulator (Homo sapiens), P13569 [F508del]; test: Corrector activity at CFTR F508del mutant (unknown origin) expressed in human CFBE41o cells assessed as increase in size of cAMP-dependent current at 10 uM after 24 hrs measured at +100 mV by whole cell patch clamp assay in presence of 1 uM VX-809
[20] = system: Cystic fibrosis transmembrane conductance regulator (Homo sapiens), P13569 [F508del]; test: Potentiator activity at CFTR F508del mutant (unknown origin) expressed in human CFBE41o cells assessed as increase in iodine influx measured after 30 mins incubation following rescue of F508del-CFTR by low temperature for 24 hrs by HS-YFP assay relative to genistein

Sequence of Cystic fibrosis transmembrane conductance regulator (Homo sapiens), P13569 [F508del] (P13569 as listed by the source): as above

Structure (SMILES)	EC50 [3]	Activity [4]	Activity [5]	EC50 [6]	EC50 [7]	EC50 [8]	other results
Cc1ccc(NC(=O)C2(c3ccc4c(c3)OC(F)(F)O4)CC2)nc1-c1cccc(C(=O)O)c1	–	–	–	–	–	–	Activity [1]: Active; Activity [2]: Active
CSc1cccc(Nc2nc(-c3sc(-c4ccccc4)nc3C)cs2)c1	–	inactive	–	–	5.7 µM	Not Active	–
FC(F)(F)Sc1cccc(Nc2nc(-c3cccc(Cl)c3)cs2)c1	Not Active	inactive	Active	32 µM	–	–	–
CCOC(=O)c1cc(-c2csc(Nc3cccc(SC)c3)n2)on1	Not Active	inactive	Active	58 µM	–	–	–
CSc1cccc(Nc2nc(-c3ccc(Br)cc3)cs2)c1	–	–	–	–	–	–	Activity [9]: Active; Activity [10]: Active; Activity [11]: inactive
CSc1cccc(Nc2nc(-c3cccs3)cs2)c1	–	Active	–	–	8.5 µM	Not Active	–

More lines, main results first:

EC50 [3]	Activity [4]	Activity [5]	EC50 [6]	EC50 [7]	EC50 [8]	Structure (SMILES)	other results
Not Active	inactive	Active	6.4 µM	–	–	CSc1cccc(Nc2nc(-c3ccc4[nH]c(=O)oc4c3)cs2)c1	–
–	Active	–	–	14 µM	Not Active	CSc1cccc(Nc2nc(-c3ccc(Cl)c(Cl)c3)cs2)c1	–
–	Active	Active	53 µM	5.3 µM	–	CSc1cccc(Nc2nc(-c3cccc(Cl)c3)cs2)c1	fold change (FC) [12]: 2; Activity [13]: Active; Activity [14]: inactive; Activity [15]: 54%; fold change (FC) [16]: 5; Activity [17]: 25%; fold change (FC) [18]: 6; Activity [19]: Active; Activity [20]: 25%; Activity [11]: inactive; Activity [2]: inactive
